Test results from patent US7199161B2, “Substituted bicylo[3.3.1]nonan-2,4,9-triones as pharmaceutical active ingredients” (Diagenics International Corporation, priority 2002, dated 2007).

How the values were obtained:
[1] = system: HCT8 WT colon carcinoma cells
Procedure: In this case, tumor cells, e.g. colon carcinoma cells (HCT8 WT), are coincubated with both active ingredients in different dosages in each case for 24 hours (FIG. 9). FIG. 9 represents the coincubation experiment on the cytotoxicity with substance (Ic′) and a specific ERK1/2 inhibitor (MAP kinase inhibitor). HCT8 WT cells were coincubated. The points shown indicate the corresponding ratios (% of the respective IC50 concentration) of the two active ingredients to one another.

3T3 mouse fibroblasts = assay: SRB assay, 3T3; assay type: cell-based; settings: 3T3 mouse fibroblasts (non-tumor)
Procedure: (§5) Six unambiguously characterized tumor cell lines of human origin (native cell lines and those converted into resistant subclones) and two non-tumor cell lines are used for further investigations (table 2).
(§6) The sensitivity of the cell lines to the substance (Ic′) is determined in a so-called sulforhodamine B (SRB) assay.
(§7) The concentration of substance (Ic′) which inhibits cell growth by 50% (IC50, determined from semilogarithmic dose versus effect plots) are indicated.

[2] = system: A2780 DX5 cells (doxorubicin resistant gp 170+); assay: SRB assay, A2780 DX5; assay type: cell-based, human; settings: A2780 DX5, doxorubicin resistant gp 170+
Procedure: as §5, §6, §7

[3] = system: HCT8 WT cells (carcinoma of colon); assay: SRB assay, HCT8 WT; assay type: cell-based, human
Source text: The target cell used is, inter alia, a bowel cancer cell line of human origin (HCT8 WT).

[4] = system: HT29 24R cells (5-FU resistant); assay: SRB assay, HT29 24R; assay type: cell-based, human
Procedure: as §6, §7

[5] = system: A2780 WT cells (adenocarcinoma of ovary); assay: SRB assay, A2780 WT; assay type: cell-based, human
Procedure: as §5, §6, §7

[6] = system: MCF-7 24R cells (5-FU resistant); assay: SRB assay, MCF-7 24R; assay type: cell-based, human
Procedure: as §5, §6, §7

[7] = system: A2780 CP2 cells (cisplatin resistant); assay: SRB assay, A2780 CP2; assay type: cell-based, human
Procedure: as §5, §6, §7

[8] = system: ERK1/2 protein (MAP kinase); assay: Western blot analysis of ERK1/2 phosphorylation; assay type: cell-based, human; settings: HCT8 WT, detectable even at a dose corresponding to the IC50
Source text: Phosphorylation of certain signal transduction pathways plays an essential role in the regulation of cell growth and gene expression. The protein ERK1/2 (MAP kinase) belongs to the MAP kinase signal transduction pathway.
Treatment of human colon carcinoma cells (HCT8 WT) with substance (Ic′) leads to phosphorylation of this protein, which is detected in a Western blot analysis (FIG. 8).

[9] = system: HCT8 SN38 cells (SN38 resistant); assay: SRB assay, HCT8 SN38; assay type: cell-based, human
Procedure: as §6, §7

[10] = system: HT29 WT colorectal carcinoma cells; assay: DNA double-strand breaks, HT29 WT; assay type: cell-based, human
Procedure: (§1) DNA isolated after treatment of the cells for various times with substance (Ic′) is for this purpose analyzed by gel electrophoresis.
(§2) Determination of the DNA double-strand breaks is performed on ^14C-labeled DNA. For this purpose, [^14C]d-thymidine-labeled cells are treated with various concentrations of substance (Ic′). The DNA is isolated by an adapted method of Chia Chiao et al.
(§3) The DNA fractionated by gel electrophoresis is subsequently stained with ethidium bromide.
(§4) On a transilluminator (302 nm), the intact DNA which has not migrated in the electric field is separated from the fragmented DNA, which has thus migrated into the gel, by extraction. The isolated gel and DNA fragments are liquefied at +80° C. in the presence of hydrochloric acid. After addition of a scintillator it is possible to determine the radioactivity using a liquid scintillation meter (TPI-CARB 2100RT). The measured radioactivity is indicated in […] (cpm).

[11] = system: HT29 SN38 cells (SN38 resistant); assay: SRB assay, HT29 SN38; assay type: cell-based, human
Procedure: as §6, §7

[12] = system: tumor cell lines (native and resistant subclones) and non-tumor cell lines
Procedure: as §5, §6, §7

[13] = system: M51 DDP cells (cisplatin resistant); assay: SRB assay, M51 DDP; assay type: cell-based, human
Procedure: as §6, §7

[14] = system: HT29 WT cells (adenocarcinoma of colon); assay: SRB assay, HT29 WT; assay type: cell-based, human
Procedure: as §6, §7

[15] = system: MCF-7 AD cells (doxorubicin resistant gp 170+); assay: SRB assay, MCF-7 AD; assay type: cell-based, human
Procedure: as §5, §6, §7

[16] = system: H460 WT cells (large-cell lung carcinoma); assay: SRB assay, H460 WT; assay type: cell-based, human
Procedure: as §5, §6, §7

human telomerase = biological target: T1, human telomerase (Homo sapiens, UniProt O14746); assay: Telomeric Repeat Amplification Assay (TRAP) ELISA; assay type: biochemical; settings: at 50 μg/ml; telomerase from HCT8 WT cells; range 10 to 50 μg/ml tested
T1 construct: human telomerase obtained from cells of a colon carcinoma (HCT8 WT); endogenous in cells; host or cells: HCT8 WT colon carcinoma cells
T1 sequence (O14746 whole entry): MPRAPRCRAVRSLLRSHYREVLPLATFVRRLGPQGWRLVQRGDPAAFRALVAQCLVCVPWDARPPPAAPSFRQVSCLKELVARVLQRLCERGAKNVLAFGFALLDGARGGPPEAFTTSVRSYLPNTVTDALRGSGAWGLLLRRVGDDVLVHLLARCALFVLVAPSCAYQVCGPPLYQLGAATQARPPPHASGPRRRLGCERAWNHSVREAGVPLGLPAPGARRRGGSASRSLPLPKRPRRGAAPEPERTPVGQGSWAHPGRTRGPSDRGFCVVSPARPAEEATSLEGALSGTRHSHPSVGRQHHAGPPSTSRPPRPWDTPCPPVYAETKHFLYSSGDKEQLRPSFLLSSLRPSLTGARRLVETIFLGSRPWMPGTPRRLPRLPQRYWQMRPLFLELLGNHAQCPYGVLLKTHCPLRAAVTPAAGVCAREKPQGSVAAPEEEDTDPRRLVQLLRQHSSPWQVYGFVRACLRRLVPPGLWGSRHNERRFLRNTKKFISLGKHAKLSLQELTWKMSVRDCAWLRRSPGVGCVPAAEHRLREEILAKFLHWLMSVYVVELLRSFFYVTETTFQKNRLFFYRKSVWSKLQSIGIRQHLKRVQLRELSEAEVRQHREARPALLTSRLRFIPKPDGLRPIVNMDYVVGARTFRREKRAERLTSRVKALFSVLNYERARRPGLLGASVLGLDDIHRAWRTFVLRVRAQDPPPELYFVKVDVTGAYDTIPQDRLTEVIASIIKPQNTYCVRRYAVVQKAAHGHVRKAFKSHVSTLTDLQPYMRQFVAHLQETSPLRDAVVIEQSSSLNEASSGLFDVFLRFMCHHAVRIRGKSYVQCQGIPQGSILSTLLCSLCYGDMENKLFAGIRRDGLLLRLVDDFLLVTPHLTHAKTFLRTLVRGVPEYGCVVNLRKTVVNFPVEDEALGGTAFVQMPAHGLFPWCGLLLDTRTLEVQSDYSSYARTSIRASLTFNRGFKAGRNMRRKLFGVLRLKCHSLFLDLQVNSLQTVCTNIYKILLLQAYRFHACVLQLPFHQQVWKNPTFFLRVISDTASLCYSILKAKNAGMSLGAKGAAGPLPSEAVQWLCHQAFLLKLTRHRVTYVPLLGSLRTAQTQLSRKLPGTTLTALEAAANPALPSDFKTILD
T1 sequence (O60832 whole entry partner): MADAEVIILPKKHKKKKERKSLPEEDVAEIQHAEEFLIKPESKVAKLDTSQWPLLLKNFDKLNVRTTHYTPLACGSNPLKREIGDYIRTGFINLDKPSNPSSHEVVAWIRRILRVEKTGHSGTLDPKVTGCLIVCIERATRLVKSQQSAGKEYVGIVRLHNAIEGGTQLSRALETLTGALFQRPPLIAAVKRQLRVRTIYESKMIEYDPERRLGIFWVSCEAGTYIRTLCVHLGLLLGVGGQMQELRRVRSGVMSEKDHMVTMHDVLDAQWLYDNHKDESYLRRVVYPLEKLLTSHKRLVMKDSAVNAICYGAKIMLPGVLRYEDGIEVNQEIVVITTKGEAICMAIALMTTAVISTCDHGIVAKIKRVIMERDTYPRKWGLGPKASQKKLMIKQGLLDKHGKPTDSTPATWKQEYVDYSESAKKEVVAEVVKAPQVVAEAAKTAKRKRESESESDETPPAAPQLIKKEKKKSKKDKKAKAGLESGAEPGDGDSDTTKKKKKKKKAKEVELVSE
T1 sequence (Q9NX24 whole entry partner): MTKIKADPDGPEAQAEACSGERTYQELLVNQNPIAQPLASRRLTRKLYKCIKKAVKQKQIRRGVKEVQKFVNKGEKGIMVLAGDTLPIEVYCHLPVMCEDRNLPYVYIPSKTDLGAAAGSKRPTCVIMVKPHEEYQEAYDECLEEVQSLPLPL
T1 sequence (Q9NPE3 whole entry partner): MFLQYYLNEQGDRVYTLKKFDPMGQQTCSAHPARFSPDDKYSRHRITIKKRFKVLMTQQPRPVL
T1 sequence (Q9NY12 whole entry partner): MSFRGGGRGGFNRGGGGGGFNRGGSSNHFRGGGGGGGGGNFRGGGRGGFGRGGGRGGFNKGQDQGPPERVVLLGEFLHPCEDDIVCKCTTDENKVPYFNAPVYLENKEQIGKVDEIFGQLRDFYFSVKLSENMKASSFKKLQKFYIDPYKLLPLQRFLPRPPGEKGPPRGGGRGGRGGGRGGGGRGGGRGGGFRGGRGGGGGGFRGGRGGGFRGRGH
T1 sequence (Q9BUR4 whole entry partner): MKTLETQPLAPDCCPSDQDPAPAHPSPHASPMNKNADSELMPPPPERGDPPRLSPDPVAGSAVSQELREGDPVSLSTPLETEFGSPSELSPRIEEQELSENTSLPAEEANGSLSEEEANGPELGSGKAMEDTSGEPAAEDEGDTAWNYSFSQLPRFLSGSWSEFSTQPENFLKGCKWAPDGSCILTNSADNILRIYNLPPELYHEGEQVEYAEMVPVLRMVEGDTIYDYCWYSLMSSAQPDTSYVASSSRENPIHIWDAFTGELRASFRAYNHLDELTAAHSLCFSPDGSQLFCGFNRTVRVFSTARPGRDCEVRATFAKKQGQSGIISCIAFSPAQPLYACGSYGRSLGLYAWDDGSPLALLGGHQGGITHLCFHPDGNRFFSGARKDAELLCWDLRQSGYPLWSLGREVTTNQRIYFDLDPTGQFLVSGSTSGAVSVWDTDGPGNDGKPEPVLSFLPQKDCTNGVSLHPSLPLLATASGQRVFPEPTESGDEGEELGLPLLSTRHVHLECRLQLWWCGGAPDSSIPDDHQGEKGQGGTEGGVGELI
Procedure: The effect of substance (Ic′) on human telomerase is determined by carrying out the so-called Telomeric Repeat Amplification Assay (TRAP) ELISA, based on the method of N. W. Kim et al.
This method is based on use of the polymerase chain reaction (PCR). This entails, in a first step, a number of (GGTTAG) motifs being attached by means of the telomerase activity to the 3′ end of a biotin-labeled oligonucleotide (TS=telomerase substrate). In a second step, the products extended in this way are amplified by the PCR technique using TS and RP (R=reverse) primers. In this way, a “ladder” of products in increments of 6 bases (initial size=50 nucleotides) is generated. During the amplification, DNP-labeled dCTP is incorporated into the PCR products. Detection and quantification of the synthesized telomerase products using a sandwich ELISA method are a measure of the telomerase enzymatic activity.
The telomerase products carry the biotin-labeled TS primers and bind to the surface of microtiter plates previously coated with streptavidin. An anti-DIG antibody conjugated to POD binds to the […] nucleotides incorporated during the amplification. After addition of the substrate TMB, the telomerase activity is visualized by […] via the onset of the color reaction by the enzyme POD. In this case, the measured absorption is directly proportional to the telomerase activity. […]

[17] = system: HCT8 ICID cells (raltitrexed resistant); assay: SRB assay, HCT8 ICID; assay type: cell-based, human
Procedure: as §6, §7

[18] = system: MCF-7 WT cells (adenocarcinoma of breast); assay: SRB assay, MCF-7 WT; assay type: cell-based, human
Procedure: as §6, §7

topoisomerase I = biological target: T2, topoisomerase I (Homo sapiens, UniProt P11387); assay: Topo I unwinding assay (pBR322 plasmid DNA, cell nucleus extract); assay type: biochemical; settings: for concentration for in vitro topoisomerase I inhibition as multiple of the IC50 of tumor growth: multiple of the concentration inhibiting tumor cell growth by 50%
T2 construct: 160 ng of cell nucleus extract with the topoisomerase I present therein; endogenous in cells; host or cells: tumor cell lines (cell nucleus extract)
T2 sequence (P11387 1-765): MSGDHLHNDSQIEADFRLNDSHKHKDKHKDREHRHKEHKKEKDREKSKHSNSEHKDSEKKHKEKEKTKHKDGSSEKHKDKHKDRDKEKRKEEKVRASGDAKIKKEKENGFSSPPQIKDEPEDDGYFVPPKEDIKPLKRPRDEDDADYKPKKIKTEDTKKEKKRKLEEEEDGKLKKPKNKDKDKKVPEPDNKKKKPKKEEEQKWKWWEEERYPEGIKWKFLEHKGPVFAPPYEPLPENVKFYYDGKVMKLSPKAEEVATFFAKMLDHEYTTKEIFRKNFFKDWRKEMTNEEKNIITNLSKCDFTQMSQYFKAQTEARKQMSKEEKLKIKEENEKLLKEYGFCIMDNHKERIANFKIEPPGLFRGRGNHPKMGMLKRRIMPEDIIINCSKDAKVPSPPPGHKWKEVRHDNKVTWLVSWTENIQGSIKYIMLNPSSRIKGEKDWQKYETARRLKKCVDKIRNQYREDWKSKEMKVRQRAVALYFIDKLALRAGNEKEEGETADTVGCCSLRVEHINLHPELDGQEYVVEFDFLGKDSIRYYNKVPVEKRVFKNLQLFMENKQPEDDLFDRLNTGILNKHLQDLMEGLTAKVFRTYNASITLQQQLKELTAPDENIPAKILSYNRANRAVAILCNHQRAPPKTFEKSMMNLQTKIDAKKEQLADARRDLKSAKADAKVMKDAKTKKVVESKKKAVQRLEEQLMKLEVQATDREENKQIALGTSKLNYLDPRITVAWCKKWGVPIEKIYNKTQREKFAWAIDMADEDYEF
Source text: The effect of the substance (Ic′) on topoisomerase I is investigated by carrying out the so-called Topo I unwinding assay. The assay is based on an ATP-independent unwinding of twisted pBR322 plasmid DNA dimers by topoisomerase I. The two different topological forms of the plasmid DNA, the twisted form and unwound, relaxed form, are separated in this investigation by means of an agarose gel. The enzyme topoisomerase I is obtained for this purpose from cell nucleus extracts of the tumor cell lines.
Cell nucleus extracts are obtained by the method of Sullivan with the modifications of Danks et al.

[19] = system: HCT8 WT bowel cancer cells; assay: Cell cycle analysis by flow cytometry (BrdU/PI); assay type: cell-based, human; settings: IC50 concentration, 24 hours
Procedure: Flow cytometric investigations by an adapted method of Tsugita M. et al. are used for the analysis.
Exponentially growing HCT8 WT bowel cancer cells are treated with substance (Ic′) with the determined IC50 concentration for 24 hours, and then the cells are incubated with BrdU. The cells fixed with methanol are subjected to a treatment with a detergent (Triton X-100/HCl) in order to denature the DNA strands. After incubation with the fluorescence-labeled antibody (anti-BrdU mAb, FITC-labeled), the second fluorescent dye (PI, propidium iodide) is added.
The DNA content (propidium iodide fluorescence) and the amount of BrdU taken up (FITC fluorescence) are determined using a Coulter flow cytometer (Coulter EPICS XL). Exemplary results are depicted in FIG. 3a and 3b.
FIG. 3a and 3b show BrdU and PI uptakes into the DNA of HCT8 WT cells, untreated (control, […]) and treated with substance (Ic′) (IC50, 24 hours, FIG. 4b). The depicted results are representative of n=3 independent experiments.

[20] = system: M51 WT cells (carcinoma of stomach); assay: SRB assay, M51 WT; assay type: cell-based, human; settings: mean ± SD of at least three experiments
Procedure: as §5, §6, §7

[21] = system: MCR-5 diploid embryonic lung fibroblasts; assay: SRB assay, MCR-5; assay type: cell-based; settings: MCR-5 fibroblasts (non-tumor)
Procedure: as §5, §6, §7

Taq polymerase = Taq polymerase (Thermus aquaticus, UniProt P19821); assay: TSR8 template control experiment (DNA polymerase); assay type: biochemical; settings: maximum concentration 50 μg/ml
Sequence of Taq polymerase (P19821 whole entry): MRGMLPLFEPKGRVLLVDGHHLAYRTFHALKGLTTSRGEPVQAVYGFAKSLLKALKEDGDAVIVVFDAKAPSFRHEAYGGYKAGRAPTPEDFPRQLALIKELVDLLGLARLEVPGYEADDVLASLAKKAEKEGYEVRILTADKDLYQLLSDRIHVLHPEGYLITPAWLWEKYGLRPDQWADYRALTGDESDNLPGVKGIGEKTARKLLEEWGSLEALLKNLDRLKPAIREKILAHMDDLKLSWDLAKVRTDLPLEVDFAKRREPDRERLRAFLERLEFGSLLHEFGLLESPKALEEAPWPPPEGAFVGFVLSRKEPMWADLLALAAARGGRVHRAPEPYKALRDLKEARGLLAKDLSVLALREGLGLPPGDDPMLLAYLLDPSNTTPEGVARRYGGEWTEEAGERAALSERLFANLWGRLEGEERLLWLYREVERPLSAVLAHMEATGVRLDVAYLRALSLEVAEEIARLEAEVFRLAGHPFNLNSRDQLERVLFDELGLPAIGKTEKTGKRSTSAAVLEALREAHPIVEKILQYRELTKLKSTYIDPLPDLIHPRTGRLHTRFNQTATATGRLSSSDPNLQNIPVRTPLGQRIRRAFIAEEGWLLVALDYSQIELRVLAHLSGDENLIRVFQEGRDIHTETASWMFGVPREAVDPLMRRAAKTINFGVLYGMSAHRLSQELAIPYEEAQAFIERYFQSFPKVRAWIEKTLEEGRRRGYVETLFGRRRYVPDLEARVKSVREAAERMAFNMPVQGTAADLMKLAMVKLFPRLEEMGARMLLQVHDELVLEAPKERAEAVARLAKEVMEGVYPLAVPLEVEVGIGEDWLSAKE
Procedure: In order to ensure the effect of substance (Ic′) on telomerase, an effect of substance (Ic′) on DNA polymerase must be ruled out. In a preliminary experiment with TSR8 as internal control, the effect of substance (Ic′) at various concentration levels was ruled out.
Amplification of the TSR8 template depends only on DNA polymerase. Every inhibitor of this enzyme can be detected using the substrate.
The experiment is carried out in triplicates.

[22] = system: H460 WT bronchial carcinoma cells; assay: DNA double-strand breaks in [14C]d-thymidine-labeled cells, H460 WT; assay type: cell-based, human; settings: up to 10 times the IC50 concentration, 6 hours
Procedure: as §1, §2, §3, §4
The results represent averages and their standard deviation from n=3 independent experiments.

Question: For “1-Benzoyl-8,8-dimethyl-2-hydroxy-3,5,7-tris-(3-methyl-2-butenyl)bicyclo[3.3.1]non-2-ene-4,9-dione [Substance (Ic′)]”, which “cytotoxicity on coincubation with a specific ERK1/2 inhibitor (MAP kinase inhibitor)” value [1] is on record?
Answer: The value was “pronounced synergism”.

Question: What about the “effect of the combination on tumor cell growth” value ([1]; 30% of IC50 of substance (Ic′) with 30% of IC50 of the specific ERK1/2 inhibitor, HCT8 WT) of the same compound?
Answer: The value was “inhibition of growth”.

Question: And the “IC50” value (3T3 mouse fibroblasts)?
Answer: The value was over 80.0 µg/mL.

Question: And the “IC50” value [2]?
Answer: The value was 6.75 ± 1.55 µg/mL.

Question: And the “IC50” value [3]?
Answer: The value was 4.23 ± 0.19 µg/mL.

Question: What about the “IC50” value [4] of the same compound?
Answer: Its value is 5.18 ± 0.76 µg/mL.

Question: What about the “IC50” value [5] of the same compound?
Answer: The value was 9.20 ± 0.82 µg/mL.

Question: And the “IC50” value [6]?
Answer: Its value is 3.30 ± 0.51 µg/mL.

Question: And the “IC50” value [7]?
Answer: The value was 6.23 ± 0.12 µg/mL.

Question: And the “phosphorylation of the ERK1/2 protein” value [8]?
Answer: The value was “dose-dependent phosphorylation”.

Question: And the “IC50” value [9]?
Answer: Its value is 4.07 ± 0.08 µg/mL.

Question: What about the “induction of DNA double-strand breaks” value [10] of the same compound?
Answer: The value was “induction of substantial amounts of double-strand breaks”.

Question: What about the “IC50” value [11] of the same compound?
Answer: Its value is 3.50 ± 1.40 µg/mL.

Question: And the “cytotoxicity for the non-tumor cell lines compared with tumor cell lines” value [12]?
Answer: The value was “considerably less”.

Question: And the “cross-resistance to the indicated cytostatics” value ([12]; resistant subclones vs native cell lines, SRB assay)?
Answer: Its value is “no cross-resistance”.

Question: What about the “IC50” value [13] of the same compound?
Answer: Its value is 4.77 ± 0.13 µg/mL.

Question: What about the “IC50” value [14] of the same compound?
Answer: Its value is 5.25 ± 0.43 µg/mL.

Question: And the “IC50” value [15]?
Answer: Its value is 4.28 ± 0.08 µg/mL.

Question: And the “IC50” value [16]?
Answer: The value was 4.21 ± 0.91 µg/mL.

Question: What about the “inhibition of human telomerase” value (human telomerase) of the same compound?
Answer: Its value is “Complete inhibition”.

Question: And the “IC50” value [17]?
Answer: Its value is 4.44 ± 0.13 µg/mL.

Question: What about the “IC50” value [18] of the same compound?
Answer: Its value is 4.37 ± 0.12 µg/mL.

Question: What about the “inhibition of topoisomerase I activity” value (topoisomerase I; at 100 μg/ml, 160 ng cell nucleus extract) of the same compound?
Answer: Its value is 100%.

Question: What about the “concentration for in vitro topoisomerase I inhibition as multiple of the IC50 of tumor growth” value (topoisomerase I) of the same compound?
Answer: The value was 20 times.

Question: What about the “effect on the cell cycle (BrdU uptake)” value [19] of the same compound?
Answer: The value was “inhibition of the synthesis phase”.

Question: What about the “IC50” value [20] of the same compound?
Answer: The value was 5.70 ± 0.21 µg/mL.

Question: And the “IC50” value [21]?
Answer: The value was 21.73 ± 6.47 µg/mL.

Question: What about the “inhibition of Taq polymerase (TSR8 template)” value (Taq polymerase) of the same compound?
Answer: Its value is “does not lead to a significant inhibition”.

Question: What about the “induction of DNA double-strand breaks” value [22] of the same compound?
Answer: The value was “induces significant amounts of double-strand breaks”.

Question: With CC[C@@]1(O)C(=O)OCc2c1cc1n(c2=O)Cc2cc3c(CN(C)C)c(O)ccc3nc2-1 [topotecan, reference compound] as the compound, how does the “concentration for in vitro topoisomerase I inhibition as multiple of the IC50 of tumor growth” value (topoisomerase I) read?
Answer: Its value is 1000 times.
